What was measured:
Type in all cases: cell-based, human
[1] = tested on: MCF-7 mammary carcinoma (M cells); test: PIT method in vitro cell growth inhibition, MCF-7; conditions: amount which inhibits 50% of the cell growth; MCF-7 cells
Description: (§1) The tests were carried out according to the method of R.van Lambalgen en P. Lelieveld, The PIT method: an automated in vitro technique for drug toxicity testing. Invest.
(§2) The ID50 values in ng/ml for the above compounds were determined according to the above mentioned procedure of van Lambalgen and Lelieveld.

[2] = tested on: T24 bladder carcinoma (T cells); test: PIT method in vitro cell growth inhibition, T24; conditions: amount which inhibits 50% of the cell growth
Description: as §1, §2

[3] = tested on: WiDr colon tumor cells (W cells); test: PIT method in vitro cell growth inhibition, WiDr; conditions: amount which inhibits 50% of the cell growth
Description: as §1, §2

[4] = tested on: IgR-37 melanoma (Z cells); test: PIT method in vitro cell growth inhibition, IgR-37; conditions: amount which inhibits 50% of the cell growth; IgR-37 cells
Description: as §1, §2

[5] = tested on: A 204 rhabdomyosarcoma (A cells); test: PIT method in vitro cell growth inhibition, A 204; conditions: amount which inhibits 50% of the cell growth; A 204 cells
Description: as §1, §2

N.N.[Cl][Pt][Cl] [cis platium, cis-(NH3)2PtCl2]
ID50 values in ng/ml MCF-7 [1]: 850 ng/mL
ID50 values in ng/ml T24 [2]: 268 ng/mL
ID50 values in ng/ml WiDr [3]: 624 ng/mL
ID50 values in ng/ml IgR-37 [4]: 878 ng/mL
ID50 values in ng/ml A 204 [5]: 871 ng/mL

From patent EP0472783A1, “Anti-tumor compositions and compounds” (PHARMACHEMIE B.V., priority 1990, dated 1992)
